Here are results for four compounds from patent US9186342B2, “Combination of an NSAID and an amino acid” (LABORATORIOS SENOSIAIN S.A. DE C.V., priority 2010, dated 2015).

The conditions of series [1]: cited from earlier work.
The subject of series [2] is pyresis induced by LPS from E. coli in rats. The experiment in a line: Anti-pyretic effect, pyresis model induced by LPS from E. coli. In kind it is in vivo, rat. Conditions: 15 mg/Kg, from the first 60 minutes. On the procedure:
After the assessment of the anti-nociceptive and anti-inflammatory effects, the anti-pyretic effect was assessed for increasing doses of the combination IBU:L-ARG in a ratio IBU/L-ARG=3.26, in comparison with the administration of an agent that is well known as capable of control fever, such as acetaminophen (15 mg/Kg) (see FIG. 5).

In series [3] the test system is inflammation induced with carrageenan in rats. The experiment in a line: Anti-inflammatory effect, inflammation model by carrageenan. In kind it is in vivo, rat. Conditions: 10 mg/Kg, each 8 hours, from the third hour. The procedure: From the results of the previous study, and following a model where inflammation is induced with carrageenan administration for generating a bruise, we determined the anti-inflammatory effect of the L-ARG-IBU combination, in comparison with the administration of a treatment of known effects (positive control: diclofenac 10 mg/Kg), and of a control group, administered each 8 hours for a period of 48 hours. This model presented a maximum inflammation level of towards 6-8 hours, after which inflammation starts to decrease gradually.

For series [4] the following is noted: in vivo; cited from earlier work.

As to `CC(C)Cc1ccc(C(C)C(=O)O)cc1` (stereo not shown) [Ibuprofen], in series [1], the solubility in water entry is given as “relatively insoluble in water”.

With `CC(=O)Nc1ccc(O)cc1` [acetaminophen], the “temperature after drug administration” value in series [2] is reported as “temperature returned to basal levels”.

As to `O=C(O)Cc1ccccc1Nc1c(Cl)cccc1Cl` [diclofenac], in series [3], the development of edema result is given as “reduced the development of edema”.

With ibuprofen arginate, the “onset of the analgesic action compared to ibuprofen alone” value in series [4] is listed as “fast onset of the analgesic action”.
